# Key:
# Type in all cases: physicochemical
# [1] = Tap density method of analysis (Sotax tapping instrument, USP II); conditions: about 10 g sample, tapped to constant volume
# Experimental: About 10 g of sample was placed in a 25 mL measuring cylinder and measured the initial volume. The measuring cylinder was kept in a Sotax Tapping instrument (USP II) and measured the volume of the sample every 50 tappings until a constant volume is obtained using the following formula: Tap Density=Weight of the sample (g)/constant Volume of the sample after tapping (mL)
# [2] = Bulk density method of analysis; conditions: about 10 g sample in 25 mL measuring cylinder
# Experimental: (§1) The X-Ray powder diffraction was measured by an X-ray powder diffractometer equipped with a Cu-anode (λ=1.54 Angstrom), X-ray source operated at 40 kV, 40 mA and a Ni filter is used to strip K-beta radiation. Two-theta calibration is performed using an NIST SRM 1976, Corundum standard. The sample was analyzed using the following instrument parameters: measuring range=3-45° 20; step width=0.01579°; and measuring time per step=0.11 second. Infra-Red Spectroscopy (FT-IR): FT-IR spectroscopy was carried out with a Perkin Elmer Spectrum 100 series spectrometer. For the production of the KBr compacts approximately 2 mg of sample was powdered with 200 mg of KBr. The spectra were recorded in transmission mode ranging from 3800 to 450 cm^−1. Differential Scanning Calorimetry (DSC): DSC (Differential Scanning calorimetry) measurements were performed with a Differential Scanning calorimeter (Perkin Elmer diamond DSC) at a scan rate of 10° C. per minute. Bulk Density Method of Analysis About 10 g of sample was placed in a 25 mL measuring cylinder and measured the volume using the following formula: Bulk density=Weight of the sample (g)/Volume of the sample (mL) Tap Density Method of Analysis
# [3] = Polymorphic stability on storage in LDPE bag, checked by P-XRD
# Experimental: as §1
# Laquinimod sodium crystalline Form A1 was prepared according to the process exemplified in Example 2 and was packed in a self-sealing low-density polyethylene (LDPE) bag. […]
# [4] = Particle size distribution by laser diffraction (Malvern Master Sizer 2000); conditions: 90 volume-percent of particles below this diameter
# Text: As used herein, “Particle Size Distribution (P.S.D)” means the cumulative volume size distribution of equivalent spherical diameters as determined by laser diffraction in Malvern Master Sizer 2000 equipment or its equivalent. As used herein, DX means that X percent of the particles have a diameter less than a specified diameter D. Thus, a D90 or d(0.9) of less than 300 microns means that 90 volume-percent of the particles in a composition have a diameter less than 300 microns.
compound,measurement,setting,value
"CCN(C(=O)c1c(O)c2c(Cl)cccc2n(C)c1=O)c1ccccc1.[Na] [laquinimod sodium crystalline Form A1, N-ethyl-N-phenyl-1,2-dihydro-4-hydroxy-5-chloro-1-methyl-2-oxoquinoline-3-carboxamide sodium]",Tapped density,[1],0.476 g/mL
same,Bulk density,[2],0.333 g/mL
same,Polymorphic stability (maintenance of the original P-XRD pattern),"[3]; stored 3 months at about 40±2° C., relative humidity about 75±5%",retain its polymorphic form
same,Polymorphic stability (maintenance of the original P-XRD pattern),"[3]; stored 6 months at 25±2° C., relative humidity about 60±5%",retain its polymorphic form
same,Particle size distribution d(0.9),[4],26.3 microns

# Reference: patent publication US8354428B2, “Solid state forms of laquinimod and its sodium salt” (Actavis Group PTC EHF, priority 2008, dated 2013)
